Earlier results on one compound are cited in US20210212947A1, “Docetaxel palmitate liposome and preparation method thereof” (SHANGHAI WEI ER BIOPHARMACEUTICAL TECH CO., LTD., priority 2018, published 2021).

SMILES strings stand for the structures.

For series [1] the following is noted: times that of paclitaxel.

Take `CC(=O)OC12COC1CC(O)C1(C)C(=O)C(O)C3=C(C)C(OC(=O)C(O)C(NC(=O)OC(C)(C)C)c4ccccc4)CC(O)(C(OC(=O)c4ccccc4)C21)C3(C)C` (stereo not drawn) [Docetaxel, [2aR-(2aα,4β,4aβ,6β,9α(aR*,βS*),11a,12a,12aα,12bα)]-β-[[(1,1dimethylethyl (Oxy)carbonyl]amino]-α-hydroxyphenylpropionic acid [12b-acetoxy-12-benzoyloxy-2a,3,4,4a,5,6,9,10,11,12,12a,12b -Dodecahydro-4,6,11-trihydroxy-4a,8,13,13-tetramethyl-5-oxo-7,11-methylene-1H-cyclodecpentaeno [3,4]Benzo [1,2-b]oxetane-9-yl]ester]: the “anti-tumor activity relative to paclitaxel” value in series [1] is reported as 1.3-12 times. For the same compound, the “solubility in organic solvents” value (organic solvents such as ethanol, acetone, ether and benzene) is “soluble”. Also, the solubility in water entry (water) was “insoluble”.
